According to patent publication US8063071B2 (GlaxoSmithKline, LLC, priority 2007, dated 2011):
Where a name gives a salt, the structure may show the parent alone.

What was measured:
[1] = target: T1, Recombinant human IKKβ (residues 1-737) (Homo sapiens, UniProt O14920); test: IKK2 assay (TR-FRET); format: biochemical; conditions: ATP 1 μM final, read-out: pIC50 against IKK2 (converted)
T1 construct: Recombinant human IKKβ (residues 1-737); GST (C); made in house
T1 sequence (O14920 1-737): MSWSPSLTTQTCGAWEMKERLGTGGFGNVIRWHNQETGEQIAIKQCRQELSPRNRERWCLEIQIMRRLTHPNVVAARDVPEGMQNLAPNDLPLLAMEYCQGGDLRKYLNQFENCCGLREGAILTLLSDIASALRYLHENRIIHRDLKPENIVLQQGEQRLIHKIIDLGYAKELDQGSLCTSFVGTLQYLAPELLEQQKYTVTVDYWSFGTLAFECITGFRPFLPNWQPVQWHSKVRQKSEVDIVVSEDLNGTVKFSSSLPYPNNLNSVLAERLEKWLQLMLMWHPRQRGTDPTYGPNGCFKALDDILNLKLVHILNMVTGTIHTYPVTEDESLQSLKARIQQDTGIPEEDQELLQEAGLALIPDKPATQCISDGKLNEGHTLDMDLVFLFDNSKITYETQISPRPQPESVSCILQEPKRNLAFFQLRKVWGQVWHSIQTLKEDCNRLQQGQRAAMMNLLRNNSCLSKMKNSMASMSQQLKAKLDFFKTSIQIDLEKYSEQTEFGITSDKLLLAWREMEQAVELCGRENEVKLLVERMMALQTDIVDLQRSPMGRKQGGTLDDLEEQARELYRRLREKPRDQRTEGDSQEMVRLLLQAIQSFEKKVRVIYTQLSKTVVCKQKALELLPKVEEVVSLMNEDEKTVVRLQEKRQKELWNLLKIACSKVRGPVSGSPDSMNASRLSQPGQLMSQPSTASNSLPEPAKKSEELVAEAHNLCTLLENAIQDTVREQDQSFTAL
In short: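 TR-FRET readout (665 nm over 620 nm Eu reference) of GST-IB Ser32/36 phosphorylation after 60 min detection. Reaction: 1 μM ATP, 25 nM substrate, 0.5-5 nM GST-fused IKKβ 1-737 from baculovirus, pH 7.4 HEPES buffer, 1.7% DMSO, 15 min room temperature, EDTA-terminated.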

[2] = system: human monocyte stimulated cytokine production (TNF-α); test: Monocyte assay (LPS-stimulated TNF-α production); format: cell-based; conditions: for IC50: 24 h, 200 ng/mL LPS, TNF-α by ELISA; for inhibition at 0.3 µM: read-out: inhibition at 300 nM in the monocyte assay
Experimental: Effect of IKK-β inhibition on human monocyte stimulated cytokine production was assessed as follows: Monocytes were isolated from heparinized whole blood by Ficoll gradient, followed by purification of CD14+ cells using MACS magnetic cell separation beads. Isolated monocytes were then adhered to 96-well culture plates at 1×10^6 cells/mL in RPMI 1640 10% FBS (JRH Biosciences, Lenexa Kans.) for 2 h. Test compounds are added to the wells 30 minutes prior to stimulation with a final vehicle concentration of 0.1% DMSO. Monocytes were activated by the addition of 200 ng/mL endotoxin (LPS; E. coli serotype 026:B6)(Sigma, St. Louis, Mo.) and incubated for 24 hrs at 37 C. Cell-free supernates were analyzed by ELISA for TNF-α using Pharmingen matched pair Abs. Viability of the cells was determined by 10% trypan blue exclusion.

| SMILES | IC50 [1] [µM] | IC50 [2] [µM] | inhibition at 0.3 µM [2] [%] |
| --- | --- | --- | --- |
| CCS(=O)(=O)N1CCC(c2c[nH]c3c(C(N)=O)cc(-c4csc(CN[C@H](C)CO)c4)cc23)CC1 [Example 234, 3-[1-(ethylsulfonyl)-4-piperidinyl]-5-[5-({[(1R)-2-hydroxy-1-methylethyl]amino}methyl)-3-thienyl]-1H-indole-7-carboxamide trifluoroacetate (salt)] | ≤ 10 | ≤ 1.5 |  |
| CCS(=O)(=O)N1CCC(c2c[nH]c3c(C(N)=O)cc(-c4cc(CN(C)C)c5c(c4)OCC5)cc23)CC1 [Example 58, 5-{4-[(dimethylamino)methyl]-2,3-dihydro-1-benzofuran-6-yl}-3-[1-(ethylsulfonyl)-4-piperidinyl]-1H-indole-7-carboxamide] | ≤ 10 |  | 0 to 60 |
| CCS(=O)(=O)N1CCC(c2c[nH]c3c(C(N)=O)cc(-c4ccnc(N(C)C)c4)cc23)CC1 [Example 202, 5-[2-(dimethylamino)-4-pyridinyl]-3-[1-(ethylsulfonyl)-4-piperidinyl]-1H-indole-7-carboxamide trifluoroacetate] | ≤ 10 | > 1 |  |
| CCNCc1cncc(-c2cc(C(N)=O)c3[nH]cc(C4CCN(S(=O)(=O)CC)CC4)c3c2)c1 [Example 177, 5-{5-[(ethylamino)methyl]-3-pyridinyl}-3-[1-(ethylsulfonyl)-4-piperidinyl]-1H-indole-7-carboxamide] | ≤ 10 |  | 0 to 60 |
| CCS(=O)(=O)N1CCC(c2c[nH]c3c(C(N)=O)cc(-c4csc(C(C)N(C)CCOC)c4)cc23)CC1 (centres unmarked) [Example 416, 3-[1-(ethylsulfonyl)-4-piperidinyl]-5-[5-(1-{methyl[2-(methyloxy)ethyl]amino}ethyl)-3-thienyl]-1H-indole-7-carboxamide trifluoroacetate] | ≤ 10 | ≤ 1.5 |  |
| CCCNCCc1ccc(-c2cc(C(N)=O)c3[nH]cc(C4CCN(S(=O)(=O)CC)CC4)c3c2)cc1 [Example 126, 3-[1-(ethylsulfonyl)-4-piperidinyl]-5-{4-[2-(propylamino)ethyl]phenyl}-1H-indole-7-carboxamide] | ≤ 10 | ≤ 1.5 |  |
| CCS(=O)(=O)N1CCC(c2c[nH]c3c(C(N)=O)cc(-c4ccc(CNC5CCC5)cc4)cc23)CC1 [Example 144, 5-{4-[(cyclobutylamino)methyl]phenyl}-3-[1-(ethylsulfonyl)-4-piperidinyl]-1H-indole-7-carboxamide] | ≤ 10 | ≤ 1.5 |  |
| CC(C)S(=O)(=O)N1CCC(c2c[nH]c3c(C(N)=O)cc(-c4csc(CN5CCC[C@@H]5CO)c4)cc23)CC1 [Example 394, 5-(5-{[(2R)-2-(hydroxymethyl)-1-pyrrolidinyl]methyl}-3-thienyl)-3-{1-[(1-methylethyl)sulfonyl]-4-piperidinyl}-1H-indole-7-carboxamide] | ≤ 10 | ≤ 1.5 |  |
| CCS(=O)(=O)N1CCC(c2c[nH]c3c(C(N)=O)cc(-c4cc(F)cc(CNCCC(C)C)c4)cc23)CC1 [Example 329, 3-[1-(ethylsulfonyl)-4-piperidinyl]-5-(3-fluoro-5-{[(3-methylbutyl)amino]methyl}phenyl)-1H-indole-7-carboxamide trifluoroacetate] | ≤ 10 | ≤ 1.5 |  |
| CCS(=O)(=O)N1CCC(c2c[nH]c3c(C(N)=O)cc(-c4ccc(CNCC(C)(C)C)s4)cc23)CC1 [Example 171, 5-(5-{[(2,2-dimethylpropyl)amino]methyl}-2-thienyl)-3-[1-(ethylsulfonyl)-4-piperidinyl]-1H-indole-7-carboxamide] | ≤ 10 | ≤ 1.5 |  |
| CCS(=O)(=O)N1CCC(c2c[nH]c3c(C(N)=O)cc(-c4cnn(CCNCC(C)C)c4)cc23)CC1 [Example 260, 3-[1-(ethylsulfonyl)-4-piperidinyl]-5-(1-{2-[(2-methylpropyl)amino]ethyl}-1H-pyrazol-4-yl)-1H-indole-7-carboxamide trifluoroacetate] | ≤ 10 | > 1 |  |
| CCS(=O)(=O)N1CCC(c2c[nH]c3c(C(N)=O)cc(-c4ccc(F)c(CNC)c4)cc23)CC1 [Example 269, 3-[1-(ethylsulfonyl)-4-piperidinyl]-5-{4-fluoro-3-[(methylamino)methyl]phenyl}-1H-indole-7-carboxamide trifluoroacetate] | ≤ 10 | ≤ 1.5 |  |
| CCS(=O)(=O)N1CCC(c2c[nH]c3c(C(N)=O)cc(-c4cccc(CN5CCCC5c5nccs5)c4)cc23)CC1 (centres unmarked) [Example 10, 3-[1-(ethylsulfonyl)-4-piperidinyl]-5-(3-{[2-(1,3-thiazol-2-yl)-1-pyrrolidinyl]methyl}phenyl)-1H-indole-7-carboxamide] | ≤ 10 | ≤ 1.5 |  |
| CCS(=O)(=O)N1CCC(c2c[nH]c3c(C(N)=O)cc(-c4cccc(CNCC(C)(C)C)c4)cc23)CC1 [Example 308, 5-(3-{[(2,2-dimethylpropyl)amino]methyl}phenyl)-3-[1-(ethylsulfonyl)-4-piperidinyl]-1H-indole-7-carboxamide trifluoroacetate] | ≤ 10 | ≤ 1.5 |  |

More lines, main results first:

| IC50 [1] [µM] | IC50 [2] [µM] | SMILES | inhibition at 0.3 µM [2] [%] |
| --- | --- | --- | --- |
| ≤ 10 | ≤ 1.5 | CCS(=O)(=O)N1CCC(c2c[nH]c3c(C(N)=O)cc(-c4cccc(C(C)N5CCCC5)c4)cc23)CC1 (centres unmarked) [Example 296, 3-[1-(ethylsulfonyl)-4-piperidinyl]-5-{3-[1-(1-pyrrolidinyl)ethyl]phenyl}-1H-indole-7-carboxamide trifluoroacetate] |  |
| ≤ 10 | ≤ 1.5 | CCS(=O)(=O)N1CCC(c2c[nH]c3c(C(N)=O)cc(-c4cccc(CNS(=O)(=O)c5cc(Cl)ccc5Cl)c4)cc23)CC1 [Example 370, 5-[3-({[(2,5-dichlorophenyl)sulfonyl]amino}methyl)phenyl]-3-[1-(ethylsulfonyl)-4-piperidinyl]-1H-indole-7-carboxamide] |  |
| ≤ 10 | ≤ 1.5 | CCS(=O)(=O)N1CCC(c2c[nH]c3c(C(N)=O)cc(-c4ccc(F)c(CN[C@@H](C)CO)c4)cc23)CC1 [Example 273, 3-[1-(ethylsulfonyl)-4-piperidinyl]-5-[4-fluoro-3-({[(1S)-2-hydroxy-1-methylethyl]amino}methyl)phenyl]-1H-indole-7-carboxamide trifluoroacetate (salt)] |  |
| ≤ 10 | ≤ 1.5 | CCNCc1cc(-c2cc(C(N)=O)c3[nH]cc(C4CCN(S(=O)(=O)CC)CC4)c3c2)ccc1F [Example 271, 5-{3-[(ethylamino)methyl]-4-fluorophenyl}-3-[1-(ethylsulfonyl)-4-piperidinyl]-1H-indole-7-carboxamide trifluoroacetate] |  |
| ≤ 10 | > 1 | CCS(=O)(=O)N1CCC(c2c[nH]c3c(C(N)=O)cc(-c4cccc(CCNC(=O)C5CCCCC5)c4)cc23)CC1 [Example 134, 5-(3-{2-[(cyclohexylcarbonyl)amino]ethyl}phenyl)-3-[1-(ethylsulfonyl)-4-piperidinyl]-1H-indole-7-carboxamide] |  |
| ≤ 10 | > 1 | CCS(=O)(=O)N1CCC(c2c[nH]c3c(C(N)=O)cc(-c4csc(CN(C)CCCN(C)C)c4)cc23)CC1 [Example 70, 5-(5-{[[3-(dimethylamino)propyl](methyl)amino]methyl}-3-thienyl)-3-[1-(ethylsulfonyl)-4-piperidinyl]-1H-indole-7-carboxamide trifluoroacetate] |  |
| ≤ 10 | > 1 | CCS(=O)(=O)N1CCC(c2c[nH]c3c(C(N)=O)cc(-c4cnn(CCNCCO)c4)cc23)CC1 [Example 255, 3-[1-(ethylsulfonyl)-4-piperidinyl]-5-(1-{2-[(2-hydroxyethyl)amino]ethyl}-1H-pyrazol-4-yl)-1H-indole-7-carboxamide trifluoroacetate] |  |
| ≤ 10 | ≤ 1.5 | CCS(=O)(=O)N1CCC(c2c[nH]c3c(C(N)=O)cc(-c4cc(F)cc(CNCC5CCCC5)c4)cc23)CC1 [Example 323, 5-(3-{[(cyclopentylmethyl)amino]methyl}-5-fluorophenyl)-3-[1-(ethylsulfonyl)-4-piperidinyl]-1H-indole-7-carboxamide trifluoroacetate] |  |
